Measured values: patent US8778626B2, “Clickable cross-linker” (California Institute of Technology, priority 2010, dated 2014)

How the values were obtained:
[1] = target: T1, ubiquitin (Homo sapiens, UniProt P0CG47); experiment: circular dichroism spectrometry of CXL-1 cross-linked ubiquitin; details: CD spectra, 0.25 or 1 mM CXL-1, t=0 and t=30 min, 1×PBS pH 7.4 (FIG. 10)
T1 construct: cross-linking of ubiquitin (PDB ID: 1 UBQ)
Procedure: The CXL-1 cross-linked ubiquitin samples were analyzed by an Aviv Model 62A DS Circular Dichroism (CD) Spectrometer (Lakewood, N.J.) at room temperature. The critical instrumental parameters included: acquisition range=200 to 300 nm, step size=1.00 nm, averaging time=5 s, bandwidth=1 nm, and path length=1 mm. One scan was recorded for each spectrum. For CXL-1 cross-linked samples, 1 to 4 μL of 50 mM CXL-1 stock solution in DMSO was added to 196 to 199 μL of 0.1 mg/mL ubiquitin in 1×PBS pH 7.4 to yield a final concentration of 0.25 to 1 mM CXL-1 in 200 CD spectra were collected upon addition of CXL-1 (t=0) and after 30 min of cross-linking reaction (t=0.5 h).
Circular dichroism (CD) spectrometry is a useful analytical technique for quick investigation of secondary structure, folding, and binding properties of peptides and proteins (Greenfield, N. J. Nat. Protocols 2007, 1, 2876). […] The CD spectra of native ubiquitin were previously recorded, yielding the secondary structure analysis of 6% α-helix, 10% β-sheet and 84% random structures, which can be observed as increasingly negative ellipticity over the range of 225 to 240 nm (Jenson et al., Biochim. Biophys. Acta 1980, 624, 378, the entire contents of which are herein incorporated by reference). […]

[2] = water solubility of CXL-1 verified by in vivo cross-linking; type: physicochemical; details: PBS; inferred from in vivo cross-linking of Cul1
Procedure: (§1) To test the cell permeability and water solubility of CXL-1, in vivo cross-linking of HEK 293 cells, followed by Western blot analysis of the Cul1 protein were performed. The in vivo cross-linking of HEK 293 cells by CXL-1, followed by Western blot analysis was carried out as described previously with minor modifications (Lee et al., Mol. Cell. Proteomics 2010, Electronic preprint. doi:10.1074/mcp.M110.006460.) Briefly, to facilitate the purification of Cul1, a HEK 293-derived stable cell line capable of expressing tagged Cul1 upon tetracycline treatment was constructed using the T-REx™ (Tetracycline-regulated Expression) system (Invitrogen, Carlsbad, Calif.). The tandem tag used here consists of a hexa-histidine sequence and a biotinylation signal sequence (Tagwerker et al., 2006). Biotinylation is catalyzed by endogenous biotin ligases, which are present in all eukaryotic cells (Cronan J. Biol. Chem. 1990, 265, 10327). A specific lysine residue in the biotinylation signal sequence functions as an acceptor site for biotin in vivo (Kulman et al., Protein Expr. Purif. 2007, 52, 320).
Cul1 is a ubiquitin ligase that attaches a ubiquitin chain on target substrates for proteasome-catalyzed degradation (Deshaies, R. J. Annu. Rev. Cell Dev. Biol. 1999, 15, 435). Cul1 is a prototype of the cullin ligase family, and constitutes modular ligase complexes with other binding partners. […]

[3] = target: T2, Cul1 protein (Homo sapiens, UniProt Q13616); experiment: in vivo cross-linking of HEK 293 cells followed by Western blot analysis of Cul1; type: cell-based; details: inferred from cross-linking of cytoplasmic Cul1 in HEK 293 cells
T2 construct: expressed in transfected cells
Procedure: as §1
Tagged Cul1 was induced with 1.0 μg/mL tetracycline for 4 hours in experiments for in vivo cross-linking. Twenty four hours after induction, cells were subject to in vivo cross-linking by treating 0, 0.1, 0.2, 0.5, and 1.0 mM of CXL-1, respectively, and incubated for 1 h at 37° C. […]

[4] = test system: HEK 293 cells; experiment: cytotoxicity of CXL-1 on cells during in vivo cross-linking; type: cell-based
Procedure: Tagged Cul1 was induced with 1.0 μg/mL tetracycline for 4 hours in experiments for in vivo cross-linking. Twenty four hours after induction, cells were subject to in vivo cross-linking by treating 0, 0.1, 0.2, 0.5, and 1.0 mM of CXL-1, respectively, and incubated for 1 h at 37° C. After the completion of the cross-linking, cells were lysed for 30 minutes at 4° C. with the lysis buffer (0.050 M HEPES, pH 7.5, 0.0050 M Mg(OAc)2, 0.070 M KOAc, 10% glycerol, and 0.4% IGEPAL CA630). The lysate was centrifuged at 16,600 g at 4° C. for 20 min and the supernatant was used for Western blot analysis.
Cul1 is a ubiquitin ligase that attaches a ubiquitin chain on target substrates for proteasome-catalyzed degradation (Deshaies, R. J. Annu. Rev. Cell Dev. Biol. 1999, 15, 435). Cul1 is a prototype of the cullin ligase family, and constitutes modular ligase complexes with other binding partners. […] Secondly, if cytoplasmic Cul1 protein is cross-linked by CXL-1, the postulated cell permeability and water solubility from the design of CXL-1 can be verified. FIG. 11 depicts the Western blot analysis of cross-linked Cul1 samples acquired from in vivo cross-linking of HEK 293 cells. From the observation of the higher molecular weight band, Cul1 is cross-linked by CXL-1 in a range of approximately 0.5 to 1.0 mM. […] Accordingly, CXL-1 is compatible with the cellular environment for in vivo cross-linking.

T2 sequence (Q13616 whole entry): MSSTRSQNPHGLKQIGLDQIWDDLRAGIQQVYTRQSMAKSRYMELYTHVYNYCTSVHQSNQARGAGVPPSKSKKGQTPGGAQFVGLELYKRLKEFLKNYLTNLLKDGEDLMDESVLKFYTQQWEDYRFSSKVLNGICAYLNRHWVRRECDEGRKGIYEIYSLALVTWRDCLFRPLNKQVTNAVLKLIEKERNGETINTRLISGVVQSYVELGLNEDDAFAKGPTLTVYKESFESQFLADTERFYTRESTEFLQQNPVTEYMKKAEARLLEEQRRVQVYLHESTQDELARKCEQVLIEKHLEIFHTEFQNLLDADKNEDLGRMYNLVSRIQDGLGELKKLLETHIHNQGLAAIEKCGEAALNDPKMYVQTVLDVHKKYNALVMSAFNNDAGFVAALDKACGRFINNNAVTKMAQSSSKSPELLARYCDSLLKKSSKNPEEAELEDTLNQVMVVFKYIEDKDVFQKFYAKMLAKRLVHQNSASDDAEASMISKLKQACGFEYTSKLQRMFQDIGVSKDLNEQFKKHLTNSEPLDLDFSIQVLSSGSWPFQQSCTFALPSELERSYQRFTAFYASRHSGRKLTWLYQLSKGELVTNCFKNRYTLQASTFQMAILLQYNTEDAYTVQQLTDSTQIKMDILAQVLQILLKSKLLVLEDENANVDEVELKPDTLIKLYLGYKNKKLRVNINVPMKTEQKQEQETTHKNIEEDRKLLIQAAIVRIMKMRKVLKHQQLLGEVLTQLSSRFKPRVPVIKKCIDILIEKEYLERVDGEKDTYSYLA

NHS-activated 2,2′-(hex-5-ynylazanediyl)diacetic acid [CXL-1]
contribution of CXL-1 on ubiquitin secondary structure [1]: minimal or undetectable | solubility [2]: soluble in PBS | cell permeability [3]: cell-permeable | cytotoxic activity on cells ([4]; CXL-1 in working concentration ranges): no or minimal cytotoxic activity | cell toxicity ([4]; treatment of CXL-1 up to 1 mM, HEK 293 cells, 1 h at 37° C.): did not induce any significant cell toxicity
